Data reported in the supplement of paper PMC11997997.

Experiments:
[1] = test system: murine bone marrow-derived macrophages; test: area under cytotoxicity dose-response curve (AUC (% cytotoxicity x dose, relative)); higher = more cytotoxic; settings: duration: 6 days; dose range: 0.13-80 uM, 8 points
How it was run: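 An 8-point, 2.5-fold dilution series (final 80–0.13 μM) was applied for 6 days at 37 °C in 5% CO2 to primary murine bone marrow-derived macrophages plated in opaque 384-well plates. Promega's CellTiter-Glo luminescence assay measured viability, and percent cytotoxicity was normalised against vehicle and positive control wells. The area under the dose–response curve, worked out in GraphPad Prism version 10, is the reported cytotoxicity measure.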

[2] = test system: Mycobacterium tuberculosis CDC1551 (intracellular, in murine BMDM); test: area under intracellular growth-inhibition dose-response curve (AUC (% inhibition x dose, relative)); higher = more potent; settings: duration: 6 days; dose range: 0.13-80 uM, 8 points
How it was run: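 Each value is an area under the growth-inhibition dose–response curve, calculated with GraphPad Prism. Infected primary murine bone marrow-derived macrophages, carrying luciferase-expressing M. tuberculosis CDC1551 at multiplicity of infection 1, were treated for 6 days with an 8-dose, 2.5-fold series (final 80–0.13 μM) in 384-well opaque plates. Readout was by Bright-Glo luciferin assay, normalised to a reference drug control and the lowest-concentration wells.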

Row | Structure (SMILES) | area under cytotoxicity dose-response curve [1] | area under intracellular growth-inhibition dose-response curve [2]
1 | S=C(Nc1ccc(Oc2ccccc2)cc1)NC1CCCCCC1 | 210 | 155
2 | S=C(Nc1ccc(N2CCOCC2)cc1)Nc1ccc2snnc2c1 | 57.1 | 235
3 | CC(=NNC(=O)c1ccncc1)c1cccc(Cl)c1 | < 0 | 258
4 | CCOc1ccc(-c2cc(C)[n+](CCc3ccc(OC)c(OC)c3)c(-c3ccc(OCC)cc3)c2)cc1.[O-][Cl+3]([O-])([O-])[O-] | 102 | 60.7
5 | CC(=O)Nc1sc(N/N=C/c2ccc(N(C)C)cc2)nc1-c1ccc(C)cc1 | 6.8 | 263
6 | Cc1cc(OCCCCn2ccnc2)cc(C)c1Cl.Cl | 24 | 174
7 | C/C=C/C=N\NC(=O)c1ccncc1 | 9.36 | 259
8 | CCCCCC(=O)NC(=S)Nc1ccc(NC(=O)c2ccco2)cc1 | 0.441 | 274
9 | O=c1c2ccccc2oc2nc3n(c(=O)c12)CCCS3 | 47.5 | 223
10 | Cc1ccc(C(=O)NC(C)C2CC3CCC2C3)cc1 (centres undefined) | < 0 | 267
11 | C=C[C@]1(C)C[C@@H](OC(=O)CSCCN(CC)CC)[C@]2(C)C(C)CC[C@]3(CCC(=O)[C@H]32)[C@@H](C)[C@@H]1O (some centres undefined) | < 0 | 231
12 | O=[N+]([O-])c1ccc(CN2CCN(c3ccccc3)CC2)o1 | 42.8 | 254
13 | O=C(N/N=C/c1cn[nH]c1-c1ccc(F)cc1)c1ccncc1 | 215 | 226
14 | COc1ccc(/C=N/NC(=O)c2ccncc2)c(OC)c1 | 28 | 227
15 | CN(C)[C@@H]1C(=O)C(C(N)=O)=C(O)[C@@]2(O)C(O)=C3C(=O)c4c(O)cccc4[C@@](C)(O)C3C[C@@H]12.Cl (some centres undefined) | 65.9 | 232
16 | CSc1ncccc1C(=O)OCC(=O)c1ccc[nH]1 | < 0 | 159
17 | O=C(Nc1cccc([N+](=O)[O-])c1)NC1CCCCCCC1 | 14 | 228
18 | CCn1cc(C(=O)NCCc2ccccc2)c(=O)c2cc(S(=O)(=O)N3CCCC3)ccc21 | 74.8 | 203
19 | COc1ccc(CCNC2=C(Cl)C(=O)N(CCc3ccc(OC)c(OC)c3)C2=O)cc1OC | 92.7 | 66.8
20 | Cc1cs/c(=N\C(=O)c2ccccc2)n1C | 57.5 | 102
21 | CCOC(=O)[N-]c1c[n+](N2CCOCC2)no1 | 41.1 | 28
22 | C=C[C@]1(C)C[C@@H](OC(=O)CSCCN(CC)CC)[C@]2(C)C(C)CC[C@]3(CCC(=O)[C@H]32)[C@@H](C)[C@@H]1O.O=C(O)/C=C/C(=O)O (some centres undefined) | 89.1 | 199
23 | NS(=O)(=O)c1ccc(NC(=O)c2ccc(Cl)c(S(=O)(=O)NCc3ccco3)c2)cc1 | < 0 | 25.5
24 | Cc1cccc(NC(=O)NC2CCCCCCC2)c1 | 95.3 | 123
25 | N#C/C(=N\Nc1ccc(Cl)cc1)C(N)=S | 16.4 | 102
26 | CCC(=O)NC(=S)Nc1ccc(NC(=S)NC(=O)c2ccccc2)cc1 | 48.6 | 263

Row | Structure (SMILES) | area under cytotoxicity dose-response curve [1] | area under intracellular growth-inhibition dose-response curve [2]
27 | O=C(NCCC1=CCCCC1)NC12CC3CC(CC(C3)C1)C2 | 60.3 | 196
28 | COc1cc(OC)c2c(OC)cccc2n1 | 101 | 92.3
29 | CC[C@H]1OC(=O)[C@H](C)[C@@H](O[C@H]2C[C@@](C)(OC)[C@@H](O)[C@H](C)O2)[C@H](C)[C@@H](O[C@@H]2O[C@H](C)C[C@H](N(C)C)[C@H]2O)[C@](C)(OC)C[C@@H](C)C(=O)[C@H](C)[C@@H](O)[C@]1(C)O | 48.5 | 246
30 | NC(=S)NN=C1Cc2cccc3cccc1c23 | 58.9 | 263
31 | O=C(NCc1ccccc1)c1ccc(Br)o1 | 19.6 | 267
32 | O=C(CSc1nc(-c2ccccc2)ns1)N1CCOCC1 | 56.3 | 163
33 | O=c1c2cc(Cl)ccc2oc2nc3n(c(=O)c12)CCCS3 | 33.5 | 216
34 | Cc1cccc(-n2c(C)cc(/C=N/NC(N)=S)c2C)c1 | < 0 | 235
35 | CC(C)Cn1c([N+](=O)[O-])nc2c1c(=O)[nH]c(=O)n2C | 40.1 | 5.16
36 | Cc1ccc(C(=O)N2CCN(c3ccc(NC(=S)NC(=O)Cc4ccccc4)cc3)CC2)cc1 | 53.7 | 212
37 | O=C(COc1ccccc1)NCc1ccccc1 | 14.8 | 163
38 | CC[C@@H](C)[C@@H]1CN([C@@H](CN2CCC[C@H]2CN2C(N)=NC[C@@H]2Cc2ccccc2)C(C)C)C(=N)N1CCCC1CCCC1 | 98.8 | 83.6
39 | Cc1ccc(C(=O)N2CCC(C)CC2)cc1C | 24.4 | 113
40 | NC(=S)N/N=C/c1ccc(Br)o1 | 3.81 | 246
41 | CC1CCN(c2ccc(NC(=O)c3ccc([N+](=O)[O-])o3)cc2)CC1.Cl | 90.4 | 56.1
42 | Cc1cccc(NC(=O)COC(=O)CCc2c[nH]c3ccccc23)c1C | 28.4 | 27.4
43 | C/C(=N\NC(N)=S)c1ccc(Cl)s1 | < 0 | 263
44 | COc1ccc(/C=C/C(=O)c2ccc([N+](=O)[O-])o2)cc1 | 71.5 | 162
45 | CC1(C)C2CCC1(C)C(NC(=O)/C=C/c1ccccc1)C2 (centres undefined) | 58.5 | 242
46 | C/C(=N\NC(N)=S)c1ccc2c(c1)OCCO2 | 25.3 | 196
47 | O=C(NCc1ccccc1F)c1ccc2c(c1)OCO2 | 87.2 | 79.5
48 | CC(=O)n1cc(/C=N/NC(N)=S)c2ccccc21 | < 0 | 273
49 | O=C(N/N=C/c1ccc(Sc2nc3ccccc3[nH]2)o1)c1ccncc1 | 34.4 | 269
50 | COc1cc(/C=C/C(=O)c2ccc([N+](=O)[O-])o2)ccc1O | 107 | 76
51 | Cc1nnc(SCC2=C(C(=O)O)N3C(=O)C(NC(=O)Cn4nc(C)c(Cl)c4C)C3SC2)s1 (centres undefined) | 82.6 | 112
52 | Cc1nc2ccccn2c1C(=O)NCc1ccc2c(c1)OCO2 | 38.9 | 203
